Data as given in publication PMC11778240, “Synthesis and preclinical evaluation of tigilanol tiglate analogs as latency-reversing agents for the eradication of HIV” (Science Advances, 2025).

System: NF-κB pathway
Assay: NF-κB activation assay, A549 cells with SEAP reporter
Format: cell-based, Human
Conditions: for NF-κB activation (optical density, 630 nm): 24 hours after dosing; for NF-κB activation (optical density, 630 nm) / NF-κB activation in words: A549 cells; for NF-κB activation, times the basal level (DMSO control) / NF-κB activation in words: 24 hours; for NF-κB activation in words: 50 and/or 500 nM
Text: As a high-throughput method of screening compounds for their ability to get into cells and activate immunological pathways related to HIV latency reversal ([46], [70]), we conducted an NF-κB reporter assay using A549 cells stably integrated with a secreted embryonic alkaline phosphatase reporter under the control of a promoter fused to five NF-κB binding sites (Fig. 7B) ([48], [70], [71]).
Human A549-Dual™ Cells supplied by InvivoGen (Cat. code a549d-nfis) and CHO-K1 cells were passaged when about 90% confluency was reached (approximately every three days). With each passage, media was aspirated from the cell layer, which was then washed with PBS. Following aspiration of the PBS, cells were detached from the culture flask with 0.25% GibcoTM Trypsin-EDTA and transferred to a 50 mL conical, which was volumed up with complete pre-warmed DMEM (4.5 g/L glucose, 10% FBS, and 1% Pen-Strep-Glutamine (100 X, 50 mg/mL)) or Ham's F-12K (Kaighn's) Medium supplemented with 10% FBS and 1% Pen-Strep (100 X, 50 mg/mL).
This conical was spun down at 1800 rpm for 3 minutes, the supernatant was removed, and cells were resuspended in their respective fresh, pre-warmed media. To count cells, 10 μL of resuspended cells were added to a sterile microcentrifuge tube and mixed with 10 μL of trypan blue after which 10 μL of the mixture was pipetted into a Countess chamber slide. A Countess™ 3 Automated Cell Counter was subsequently utilized to determine cell viability and concentration.
1 x 10^6 cells were seeded with each passage into a T75 culture flask, and cells were incubated at […]
Human A549 lung carcinoma cells (InvivoGen Cat. code a549d-nfis), stably integrated with a secreted embryonic alkaline phosphatase (SEAP) reporter, allow for the activity of the NF-κB pathway to be monitored. The SEAP reporter is under control of the interferon β (IFN-β) minimal promoter, which is fused to five NF-κB binding sites.
5 × 10^4 A549 cells were plated on Corning® 96 Well TC-Treated Microplates (CLS3595) in 180 μl of pre-warmed DMEM (4.5 g/L glucose, 10% heat-inactivated FBS (30 min at 56 ℃), and 1% Pen-Strep-Glutamine (100 X, 50 mg/mL)). Note that if cells were grown in media containing FBS that is not heat-inactivated, media will contain alkaline phosphatase. In this case, all supernatant must thoroughly be aspirated from the cell pellet obtained after centrifugation before resuspending cells in media containing heat inactivated FBS for plating. Following incubation at 37 °C in 5% CO2 for approximately 24 hours to allow for cell adherence onto the 96 well plate, 1.8 μL of each compound dissolved in DMSO was added in quadruplicate to their respective wells to achieve a final compound concentration of 1500 nM, 500 nM, or 50 nM. 1.8 μL of DMSO was added to wells as negative controls while wells treated with EBC-46 served as positive controls. 24 hours following compound addition, 180 μL of QUANTI-BlueTM Solution (InvivoGen Cat. code rep-qbs)- medium containing QB buffer and QB Reagent for detection and quantification of alkaline phosphatase- were added into wells on a new clear flat-bottom 96-well plate. 20 μL of supernatant of either SEAP-expressing cells incubated with compound or SEAP-expressing cells incubated with DMSO only were added to the wells in the new 96-well plate containing QUANTI-BlueTM Solution. Supernatant and QUANTI-BlueTM Solution were incubated at 37 °C in 5% CO2 for approximately an hour and a half. Following incubation, optical density (OD) at 630 nm was measured for each well using a BioTek Synergy H1 microplate reader under normal read speed and with a delay of 100 msec.

C/C=C(\C)C(=O)O[C@@H]1[C@@H](C)[C@@]2(O)[C@H]([C@@H]3C(C)(C)[C@]13OC(=O)[C@@H](C)CC)[C@@H]1O[C@]1(CO)[C@@H](O)[C@]1(O)C(=O)C(C)=C[C@H]12 [EBC-46, Tigilanol tiglate]
NF-κB activation (optical density, 630 nm) (50 nM): 0.35 optical density, 630 nm | NF-κB activation, times the basal level (DMSO control) (500 nM): ~ 2.5 times | NF-κB activation (optical density, 630 nm) (500 nM): 0.69 optical density, 630 nm | NF-κB activation in words: minimal activation of NF-κB relative to the dimethyl sulfoxide (DMSO) control

C/C=C(\C)C(=O)O[C@@H]1[C@@H](C)[C@]2(O)[C@@H]3C=C(C)C(=O)[C@@]3(O)[C@H](O)C(CO)=C[C@H]2[C@@H]2C(C)(C)[C@]12OC(=O)[C@@H](C)CC [SUW400]
NF-κB activation (optical density, 630 nm) (50 nM): 0.41 optical density, 630 nm | NF-κB activation (optical density, 630 nm) (500 nM): 0.67 optical density, 630 nm | NF-κB activation in words: comparable activity to EBC-46 at 50 and 500 nM

C/C=C(\C)C(=O)O[C@@H]1[C@@H](C)[C@@]2(O)[C@@H](C=C(CO)C[C@]3(O)C(=O)C(C)=C[C@@H]23)[C@@H]2C(C)(C)[C@]12OC(=O)[C@@H](C)CC [SUW402]
NF-κB activation, times the basal level (DMSO control) (50 nM): approximately three | NF-κB activation (optical density, 630 nm) (50 nM): 0.71 optical density, 630 nm | NF-κB activation (optical density, 630 nm) (500 nM): 0.63 optical density, 630 nm | NF-κB activation in words: strong activation of NF-κB at higher concentrations but with an inverse dose response

CC=C(C)C(=O)OC1C(C)C2(O)C(C3OC3(CO)CC3(O)C(=O)C(C)=CC32)C2C(C)(C)C12OC(=O)C(C)CC (stereo not drawn) [SUW403]
NF-κB activation (optical density, 630 nm) (50 nM): 0.39 optical density, 630 nm | NF-κB activation (optical density, 630 nm) (500 nM): 0.67 optical density, 630 nm | NF-κB activation in words: comparable activity to EBC-46 at 50 and 500 nM

C/C=C(\C)C(=O)O[C@@H]1[C@@H](C)[C@@]2(O)[C@H]([C@@H]3C(C)(C)[C@]13OC(=O)C1CCC1)[C@@H]1O[C@]1(CO)[C@@H](O)[C@]1(O)C(=O)C(C)=C[C@H]12 [SUW406]
NF-κB activation (optical density, 630 nm) (50 nM): 0.38 optical density, 630 nm | NF-κB activation (optical density, 630 nm) (500 nM): 0.57 optical density, 630 nm | NF-κB activation in words: comparable activity to EBC-46 at 50 and 500 nM

C/C=C(\C)C(=O)O[C@@H]1[C@@H](C)[C@@]2(O)[C@H]([C@@H]3C(C)(C)[C@]13OC(=O)[C@H](C)CC)[C@@H]1O[C@]1(CO)[C@@H](O)[C@]1(O)C(=O)C(C)=C[C@H]12 [SUW407]
NF-κB activation (optical density, 630 nm) (50 nM): 0.42 optical density, 630 nm | NF-κB activation (optical density, 630 nm) (500 nM): 0.60 optical density, 630 nm | NF-κB activation in words: comparable activity to EBC-46 at 50 and 500 nM

CC[C@H](C)C(=O)O[C@@]12[C@H](OC(=O)C3(C)CC3)[C@@H](C)[C@@]3(O)[C@H]([C@@H]1C2(C)C)[C@@H]1O[C@]1(CO)[C@@H](O)[C@]1(O)C(=O)C(C)=C[C@H]13 [SUW413]
NF-κB activation (optical density, 630 nm) (50 nM): 0.40 optical density, 630 nm | NF-κB activation (optical density, 630 nm) (500 nM): 0.70 optical density, 630 nm | NF-κB activation in words: comparable activity to EBC-46 at 50 and 500 nM

C/C=C(\C)C(=O)O[C@@H]1[C@@H](C)[C@@]2(O)[C@H]([C@@H]3C(C)(C)[C@]13OC(=O)N1CCCC1)[C@@H]1O[C@]1(CO)[C@@H](O)[C@]1(O)C(=O)C(C)=C[C@H]12 [SUW421]
NF-κB activation (optical density, 630 nm) (50 nM): 0.30 optical density, 630 nm | NF-κB activation (optical density, 630 nm) (500 nM): 0.31 optical density, 630 nm | NF-κB activation in words: minimal activity in this assay at 50 and 500 nM

C/C=C(\C)C(=O)O[C@@H]1[C@@H](C)[C@]2(O)[C@@H]3C=C(C)[C@H](OC(=O)c4ccccc4)[C@@]3(O)[C@H](O)C(CO)=C[C@H]2[C@@H]2C(C)(C)[C@]12OC(=O)[C@@H](C)CC [SUW422]
NF-κB activation (optical density, 630 nm) (50 nM): 0.26 optical density, 630 nm | NF-κB activation (optical density, 630 nm) (500 nM): 0.36 optical density, 630 nm | NF-κB activation in words: minimal NF-κB activation at both 50 and 500 nM

CC[C@H](C)C(=O)O[C@@]12[C@H](OC(=O)N3CCCC3)[C@@H](C)[C@@]3(O)[C@H]([C@@H]1C2(C)C)[C@@H]1O[C@]1(CO)[C@@H](O)[C@]1(O)C(=O)C(C)=C[C@H]13 [SUW424]
NF-κB activation (optical density, 630 nm) (50 nM): 0.34 optical density, 630 nm | NF-κB activation (optical density, 630 nm) (500 nM): 0.34 optical density, 630 nm | NF-κB activation in words: minimal activity in this assay at 50 and 500 nM

C/C=C(\C)C(=O)O[C@@H]1[C@@H](C)[C@]2(O)[C@@H]3C=C(C)[C@H](OC(=O)C=C(C)C)[C@@]3(O)[C@H](O)C(CO)=C[C@H]2[C@@H]2C(C)(C)[C@]12OC(=O)[C@@H](C)CC [SUW425]
NF-κB activation (optical density, 630 nm) (50 nM): 0.34 optical density, 630 nm | NF-κB activation (optical density, 630 nm) (500 nM): 0.47 optical density, 630 nm | NF-κB activation in words: minimal NF-κB activation at both 50 and 500 nM

CC=C(C)C(=O)OC1C(C)C2(O)C(C3OC3(COC)C(O)C3(O)C(=O)C(C)=CC32)C2C(C)(C)C12OC(=O)C(C)CC (stereo not drawn) [SUW426]
NF-κB activation (optical density, 630 nm) (50 nM): 0.23 optical density, 630 nm | NF-κB activation (optical density, 630 nm) (500 nM): 0.23 optical density, 630 nm | NF-κB activation in words: did not exhibit NF-κB activation at either concentration tested

C/C=C(\C)C(=O)O[C@@H]1[C@@H](C)[C@@]2(O)[C@H]([C@@H]3C(C)(C)[C@]13OC(=O)c1ccccc1)[C@@H]1O[C@]1(CO)[C@@H](O)[C@]1(O)C(=O)C(C)=C[C@H]12 [SUW428]
NF-κB activation (optical density, 630 nm) (50 nM): 0.31 optical density, 630 nm | NF-κB activation (optical density, 630 nm) (500 nM): 0.43 optical density, 630 nm | NF-κB activation in words: less effective at inducing NF-κB activation than EBC-46 at 500 nM

CC[C@H](C)C(=O)O[C@@]12[C@H](OC(C)(C)C)[C@@H](C)[C@@]3(O)[C@H]([C@@H]1C2(C)C)[C@@H]1O[C@]1(CO)[C@@H](O)[C@]1(O)C(=O)C(C)=C[C@H]13 [SUW430]
NF-κB activation (optical density, 630 nm) (50 nM): 0.30 optical density, 630 nm | NF-κB activation (optical density, 630 nm) (500 nM): 0.67 optical density, 630 nm | NF-κB activation in words: performed comparably to EBC-46 at both concentrations

C/C=C(\C)C(=O)O[C@@H]1[C@@H](C)[C@@]2(O)[C@H]([C@@H]3C(C)(C)[C@]13OC(=O)Cc1cccc3ccccc13)[C@@H]1O[C@]1(CO)[C@@H](O)[C@]1(O)C(=O)C(C)=C[C@H]12 [SUW431]
NF-κB activation, times the basal level (DMSO control) (50 nM): approximately three | NF-κB activation (optical density, 630 nm) (50 nM): 0.74 optical density, 630 nm | NF-κB activation (optical density, 630 nm) (500 nM): 0.65 optical density, 630 nm | NF-κB activation in words: strong activation of NF-κB at higher concentrations but with an inverse dose response
